Measurements: ChEMBL document CHEMBL1909046, “DrugMatrix in vitro pharmacology data”

What was measured:
[1] = DRUGMATRIX: ATPase, Na+/K+ enzyme inhibition (substrate: ATP); type: tissue-based, Sus scrofa, Heart; conditions: Not Active = under 50% inhibition at 10 µM
[2] = DRUGMATRIX: Serotonin (5-Hydroxytryptamine) 5-HT3 radioligand binding (ligand: [3H] GR-65630); type: cell membranes, Membrane; conditions: hek293; Not Active = under 50% inhibition at 10 µM
[3] = DRUGMATRIX: Tumor Necrosis Factor (TNF), Non-Selective radioligand binding (ligand: [125I] TNF-alpha); type: cell membranes, Membrane; conditions: u-937; Not Active = under 50% inhibition at 10 µM
Melanocortin receptor 5 = Melanocortin receptor 5 (Homo sapiens, UniProt P33032); type: cell membranes, HEK293, Membrane; note: in other assays of this panel Not Active means under 50% inhibition at 10 µM
[4] = molecular target: Mitogen-activated protein kinase 1 (Homo sapiens, UniProt P28482); experiment: DRUGMATRIX: Protein Serine/Threonine Kinase, ERK2 enzyme inhibition (substrate: Myelin Basic Protein); design: species or system Escherichia coli; conditions: Not Active = under 50% inhibition at 10 µM
Acetylcholinesterase = Acetylcholinesterase (Homo sapiens, UniProt P22303); experiment: DRUGMATRIX: Acetylcholinesterase enzyme inhibition (substrate: acetylthiocholine); type: cell-based, HEK293; conditions: hek293; Not Active = under 50% inhibition at 10 µM
Acetylcholinesterase, sequence (P22303 whole entry): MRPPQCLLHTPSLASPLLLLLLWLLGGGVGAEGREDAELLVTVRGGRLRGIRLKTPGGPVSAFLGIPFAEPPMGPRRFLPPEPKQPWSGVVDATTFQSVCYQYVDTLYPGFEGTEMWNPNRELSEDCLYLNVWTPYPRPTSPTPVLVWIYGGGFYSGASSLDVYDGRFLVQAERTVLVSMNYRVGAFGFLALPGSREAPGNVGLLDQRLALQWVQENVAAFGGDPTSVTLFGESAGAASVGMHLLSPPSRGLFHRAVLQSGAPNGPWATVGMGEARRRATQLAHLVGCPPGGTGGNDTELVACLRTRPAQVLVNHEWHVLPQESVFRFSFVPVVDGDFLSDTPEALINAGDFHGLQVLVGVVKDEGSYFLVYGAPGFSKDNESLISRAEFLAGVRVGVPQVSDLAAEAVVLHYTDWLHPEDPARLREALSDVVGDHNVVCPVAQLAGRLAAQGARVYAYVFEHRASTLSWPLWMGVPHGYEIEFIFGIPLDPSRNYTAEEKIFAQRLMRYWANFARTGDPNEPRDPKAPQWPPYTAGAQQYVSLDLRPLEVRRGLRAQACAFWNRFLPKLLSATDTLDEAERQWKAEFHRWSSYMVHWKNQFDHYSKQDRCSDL

Melanocortin receptor 5, sequence (P33032 whole entry): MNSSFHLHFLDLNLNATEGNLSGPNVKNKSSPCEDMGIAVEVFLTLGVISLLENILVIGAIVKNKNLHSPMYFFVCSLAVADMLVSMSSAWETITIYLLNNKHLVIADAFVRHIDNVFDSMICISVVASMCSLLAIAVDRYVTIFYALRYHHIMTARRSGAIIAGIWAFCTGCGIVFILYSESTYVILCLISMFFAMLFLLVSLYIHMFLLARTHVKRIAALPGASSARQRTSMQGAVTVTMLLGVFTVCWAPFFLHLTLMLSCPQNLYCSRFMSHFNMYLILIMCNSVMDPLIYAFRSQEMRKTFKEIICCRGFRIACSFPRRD
Mitogen-activated protein kinase 1, sequence (P28482 whole entry): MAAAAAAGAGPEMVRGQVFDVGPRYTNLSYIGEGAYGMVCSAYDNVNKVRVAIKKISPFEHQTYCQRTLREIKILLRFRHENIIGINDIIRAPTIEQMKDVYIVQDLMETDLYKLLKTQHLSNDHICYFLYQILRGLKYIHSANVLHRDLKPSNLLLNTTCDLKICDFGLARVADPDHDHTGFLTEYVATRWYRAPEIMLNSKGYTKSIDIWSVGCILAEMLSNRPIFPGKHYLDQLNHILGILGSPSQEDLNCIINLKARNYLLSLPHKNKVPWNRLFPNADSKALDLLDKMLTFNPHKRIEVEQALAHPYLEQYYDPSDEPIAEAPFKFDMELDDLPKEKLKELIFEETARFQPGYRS

Row | SMILES | IC50 [1] | Ki [1] | IC50 [2] | Ki [2] | IC50 [3] | Ki [3] | IC50 (Melanocortin receptor 5; hek293) | IC50 [4] | IC50 (Acetylcholinesterase) | IC50 (Melanocortin receptor 5; read-out: IC50) [µM] | Ki (Melanocortin receptor 5; read-out: Ki) [µM] | IC50 ([4]; read-out: IC50) [µM]
1 | CO[C@@H]1[C@@H](OC)[C@H](C)[C@@](O)(CC(=O)O)O[C@H]1[C@H](C)[C@H]1O[C@@]2(CC[C@@](C)([C@H]3CC[C@@](C)([C@@H]4O[C@@H]([C@H]5O[C@](C)(O)[C@H](C)C[C@@H]5C)C[C@@H]4O[C@@H]4C[C@H](OC)[C@@H](OC)[C@H](C)O4)O3)O2)C[C@H](O)[C@H]1C.N [MADURAMICIN] | Not Active | Not Active | Not Active | Not Active | Not Active | Not Active | Not Active | Not Active | Not Active | – | – | –
2 | CCC(C)(C)C(=O)O[C@H]1C[C@@H](C)C=C2C=C[C@H](C)[C@H](CC[C@@H]3C[C@@H](O)CC(=O)O3)[C@H]21 [SIMVASTATIN] | Not Active | Not Active | Not Active | Not Active | Not Active | Not Active | Not Active | Not Active | Not Active | – | – | –
3 | C#C[C@]1(O)CC[C@H]2[C@@H]3[C@H](C)CC4=C(CCC(=O)C4)[C@H]3CC[C@@]21C [TIBOLONE] | Not Active | Not Active | Not Active | Not Active | Not Active | Not Active | Not Active | Not Active | Not Active | – | – | –
4 | Cc1nnc(NS(=O)(=O)c2ccc(N)cc2)s1 [SULFAMETHIZOLE] | Not Active | Not Active | Not Active | Not Active | Not Active | Not Active | Not Active | Not Active | Not Active | – | – | –
5 | C[C@]12CCC(=O)C[C@@H]1CC[C@@H]1[C@@H]2CC[C@]2(C)[C@@H](O)CC[C@@H]12 [STANOLONE] | Not Active | Not Active | Not Active | Not Active | Not Active | Not Active | Not Active | Not Active | Not Active | – | – | –
6 | CO[C@@]12[C@H](COC(N)=O)C3=C(C(=O)C(C)=C(N)C3=O)N1C[C@@H]1N[C@@H]12 [MITOMYCIN] | Not Active | Not Active | Not Active | Not Active | Not Active | Not Active | Not Active | Not Active | Not Active | – | – | –
7 | Cc1[nH]c(=O)c(C#N)cc1-c1ccncc1 [MILRINONE] | Not Active | Not Active | Not Active | Not Active | Not Active | Not Active | Not Active | Not Active | Not Active | – | – | –
8 | CC(Cl)(Cl)Cl [TRICHLOROETHANE] | Not Active | Not Active | Not Active | Not Active | Not Active | Not Active | Not Active | Not Active | Not Active | – | – | –
9 | CC[C@H](C)C(=O)O[C@H]1CCC=C2C=C[C@H](C)[C@H](CC[C@@H]3C[C@@H](O)CC(=O)O3)[C@H]21 [MEVASTATIN] | Not Active | Not Active | Not Active | Not Active | Not Active | Not Active | Not Active | Not Active | Not Active | – | – | –
10 | CC(=O)O[C@]1(C(C)=O)CC[C@H]2[C@@H]3C[C@H](C)C4=CC(=O)CC[C@]4(C)[C@H]3CC[C@@]21C [MEDROXYPROGESTERONE ACETATE] | Not Active | Not Active | Not Active | Not Active | Not Active | Not Active | Not Active | Not Active | Not Active | – | – | –
11 | CC[C@@]1(O)C(=O)OCc2c1cc1n(c2=O)Cc2cc3c(CN(C)C)c(O)ccc3nc2-1 [TOPOTECAN] | Not Active | Not Active | Not Active | Not Active | Not Active | Not Active | Not Active | Not Active | Not Active | – | – | –
12 | CC#C[C@]1(O)CC[C@H]2[C@@H]3CCC4=CC(=O)CCC4=C3[C@@H](c3ccc(N(C)C)cc3)C[C@@]21C [MIFEPRISTONE] | Not Active | Not Active | Not Active | Not Active | Not Active | Not Active | Not Active | Not Active | Not Active | – | – | –
13 | Cc1cnc(NC(=O)C2=C(O)c3ccccc3S(=O)(=O)N2C)s1 [MELOXICAM] | Not Active | Not Active | Not Active | Not Active | Not Active | Not Active | Not Active | Not Active | Not Active | – | – | –
14 | O=[As][O-].[Na+] [SODIUM ARSENITE] | Not Active | Not Active | Not Active | Not Active | Not Active | Not Active | Not Active | Not Active | Not Active | – | – | –
15 | Cc1cccc(C)c1NC(=O)C(C)N (stereo not given) [TOCAINIDE] | Not Active | Not Active | Not Active | Not Active | Not Active | Not Active | Not Active | Not Active | Not Active | – | – | –
16 | COC(=O)Nc1nc2ccc(C(=O)c3ccccc3)cc2[nH]1 [MEBENDAZOLE] | Not Active | Not Active | Not Active | Not Active | Not Active | Not Active | Not Active | Not Active | Not Active | – | – | –
17 | CCOC(=O)C1=C(C)NC(C)=C(C(=O)OCC)C1c1ccccc1/C=C/C(=O)OC(C)(C)C [LACIDIPINE] | Not Active | Not Active | Not Active | Not Active | Not Active | Not Active | Not Active | Not Active | Not Active | – | – | –
18 | CC[C@H](C)[C@@H](CO[C@@H](Cc1ccccc1)C(=O)N[C@@H](CCS(C)(=O)=O)C(=O)OC(C)C)NC[C@@H](N)CS | Not Active | Not Active | Not Active | Not Active | Not Active | Not Active | – | Not Active | Not Active | 0.122 | 0.114 | –
19 | O=C(c1ccccc1)c1ccc2n1CCC2C(=O)O (stereo not given) [KETOROLAC] | Not Active | Not Active | Not Active | Not Active | Not Active | Not Active | Not Active | Not Active | Not Active | – | – | –
20 | O=C(O)c1cc(/N=N/c2ccc(S(=O)(=O)Nc3ccccn3)cc2)ccc1O [SULFASALAZINE] | Not Active | Not Active | Not Active | Not Active | Not Active | Not Active | Not Active | – | Not Active | – | – | 6.33
21 | CC1(C)[C@H](C(=O)O)N2C(=O)C[C@H]2S1(=O)=O [SULBACTAM] | Not Active | Not Active | Not Active | Not Active | Not Active | Not Active | Not Active | Not Active | Not Active | – | – | –
